Patent US20260132123A1, “ABAD INHIBITOR COMPOUNDS” (UNIVERSITY COURT OF THE UNIVERSITY OF ST ANDREWS, priority 2021, published 2026)
pEC50: −log10 of the molar value.

What was measured:
[1] = target: T1, 17β-HSD10 (Homo sapiens, UniProt Q99714); assay: 17β-HSD10 (ABAD) enzyme inhibition assay, NADH oxidation read at 340 nm (primary screen and dose response); type: biochemical; settings: for pEC50 / Max. Effect (%) / Hill Slope / Max. Fit / Min. Fit: recombinant 17βHSD10 enzyme assay; for Hill Slope / Max. Fit / Min. Fit: curve fit
T1 construct: Histev (histidine tag with TEV site) (N, cleaved yes); made in house; host or cells: E. coli BL21-CodonPlus
T1 sequence (Q99714 1-261): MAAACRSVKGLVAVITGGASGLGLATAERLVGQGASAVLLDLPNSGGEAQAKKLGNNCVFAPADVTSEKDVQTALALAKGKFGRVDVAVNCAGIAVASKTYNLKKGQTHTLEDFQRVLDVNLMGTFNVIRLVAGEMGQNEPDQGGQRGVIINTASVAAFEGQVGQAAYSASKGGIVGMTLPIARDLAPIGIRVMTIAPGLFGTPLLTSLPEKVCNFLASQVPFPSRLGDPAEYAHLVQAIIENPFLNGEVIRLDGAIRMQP
Outline: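 Screening used a 35 min room-temperature endpoint A340 read after compound (10 μM) and enzyme (2.5 nM, E. coli-expressed, His-tag removed) preincubated 15 min, then 100 μM NADH plus acetoacetyl-CoA added. Dose-response runs tracked absorbance kinetically 45 min; buffer pH 7.4 Tris with BSA, DTT.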

[2] = system: mtsABAD HEK293 cells; assay: Lactate dehydrogenase (LDH) cytotoxicity assay; type: cell-based, human; settings: 50 μM compound
Procedure: Cell cytotoxicity was assessed via the measurement of lactate dehydrogenase leakage into the culture medium using a commercially available kit from Pierce (Thermo Scientific cat no. 88953). This was carried out in accordance with the kit guidelines, with the activity of Lactate Dehydrogenase (LDH) being calculated from the change in absorbance at […] as NADH is reduced. HEK293 cells overexpressing mts17β-HSD10 were cultured in phenol-red free media (10% fetal bovine serum (FBS), 1 mM sodium pyruvate, 100 units penicillin, 0.1 mg/mL streptomycin and 2 mM L-glutamine) and seeded at a density of 10,000 cells per well (100 μL, 96 well plates). […] Treated cells were incubated at 37° C. and CO2 (5%) for 24 hours before the LDH assay was performed as per the manufacturer's instructions. Spontaneous control (water) and maximum control (lysis buffer) used in accordance with the kit guide. Absorbance was measured at 490 nm and 680 nm using a SpectraMaxM2e spectrophotometer. The measured LDH activity was used to calculate % cytotoxicity using the following equation: […]

[3] = system: mtsABAD HEK293 cells; assay: Alamar Blue cell viability assay; type: cell-based, human; settings: 50 μM compound
Procedure: Cell viability was assessed via fluorescence change using the commercially available Alamar Blue from ThermoFisher. HEK293 cells overexpressing mts17β-HSD10 were cultured in phenol-red free media (10% FBS, 1 mM sodium pyruvate, 100 units penicillin, 0.1 mg/mL streptomycin and 2 mM L-glutamine) and seeded at a density of 10,000 cells per well (100 μL, 96 well plates). […] Treated cells were then incubated at 37° C. and CO2 (5%) for 24 hours before the assay was performed as per the manufacturer's instructions. Fluorescence was measured at 530 nm excitation and 590 nm emission using a SpectraMaxM2e spectrophotometer.

| Structure (SMILES) | pEC50 [1] | Max. Effect (%) [1] [%] | Hill Slope [1] | Max. Fit [1] | Min. Fit [1] | fold improvement in activity / potency ([1]; relative to the parent compound of the sentence) | fold less potent than ESC1002033 [1] | IC50 ([1]; 17β-HSD10 dose response / inhibition assay, read-out: 17β-HSD10 pIC50 (converted)) [nM] | figure in brackets after the pIC50 bound ([1]; Table 3, equals Max. Effect (%) of Table 6) | LDH % Toxicity (50 μM Dose) [2] [%] | Alamar Blue % Viability (50 μM Dose) [3] [%] | 17β-HSD10 / ABAD activity in words (SAR discussion) [1] | LDH % Toxicity (50 μM Dose) ([2]; listed as ESC1002203-01) [%] | Alamar Blue % Viability (50 μM Dose) ([3]; listed as ESC1002203-01) [%] |
| --- | --- | --- | --- | --- | --- | --- | --- | --- | --- | --- | --- | --- | --- | --- |
| Cc1ccsc1C(=O)N1CCC[C@H]1c1ccccc1-c1ccc(C(F)(F)F)cc1 [ESC1002314] | 6.24 | 99 | 1.2 | 97 | 0 |  |  |  |  | 5.98 | 87.10 |  |  |  |
| Cc1ccsc1C(=O)N1CCC[C@H]1c1ccccc1-c1cccc(Cl)c1 [ESC1002321] | 6.58 | 105 | 0.92 | 102 | 4 |  |  |  |  | 5.98 | 84.52 |  |  |  |
| COc1ccc(-c2ccccc2[C@H]2CCCN2C(=O)c2sccc2C)cc1 [ESC1002089] |  |  | 1.1 | 98 | 0 | under 3 fold |  |  |  | 5.398 | 83.064 |  |  |  |
| COc1cccc(-c2ccccc2[C@@H]2CCCN2C(=O)c2sccc2C)c1OC [ESC1002326] | 6.15 | 97 | 1.1 | 99 | 4 |  |  |  |  | 5.05 | 88.92 |  |  |  |
| Cc1ccsc1C(=O)N1CCC[C@H]1c1ccccc1-c1cnn(C2CCOCC2)c1 [ESC1002341] | 5.79 | 91 | 0.87 | 102 | −6 |  |  |  |  | 5.13 | 96.72 |  |  |  |
| Cc1ccsc1C(=O)N1CCC[C@H]1c1ccccc1-c1ccccc1Cl [ESC1002324] | 6.53 | 99 | 1 | 102 | 0 |  |  |  |  | 5.04 | 85.64 |  |  |  |
| Cc1ccsc1C(=O)N1CCC[C@H]1c1ccccc1-c1ccc(Cl)cc1Cl [ESC1002340] | 6.20 | 105 | 1.6 | 96 | −7 |  |  |  |  | 5.33 | 94.26 |  |  |  |
| Cc1n[nH]c(Cc2ccccc2)c1-c1ccccc1O [ESC1002170, 2-(5-benzyl-3-methyl-1H-pyrazol-4-yl) phenol] | 6.30 | 99 | 1.1 | 98 | 0 |  |  |  |  | 5.192 | 79.141 |  |  |  |
| COc1ccc(-c2ccccc2[C@@H]2CCCN2C(=O)c2sccc2C)cn1 (single isomer, unassigned) [ESC1002161] | < 4.70 | 7 |  |  |  |  |  | > 20000 | 7 | 4.783 | 92.566 |  |  |  |
| COc1ccc(-c2ccccc2[C@H]2CCCN2C(=O)c2sccc2C)cc1 (single isomer, unassigned) [ESC1002331] |  |  |  |  |  |  |  |  |  | 5.88 | 88.56 |  |  |  |
| CC(C)CN(C(=O)c1ccccc1F)c1cccc(N(C)Cc2cn[nH]c2)c1 [ESC1002205-02] |  |  |  |  |  |  |  |  |  | 5.243 | 89.638 |  |  |  |
| COc1cc(-c2ccccc2[C@@H]2CCCN2C(=O)c2sccc2Cl)ccn1 (racemic) [ESC1002665] | 6.22 | 95 | 1 | 97 | −3 |  |  |  |  |  |  |  |  |  |

The next lines start with results.

| pEC50 [1] | Max. Effect (%) [1] [%] | Hill Slope [1] | Max. Fit [1] | Min. Fit [1] | fold improvement in activity / potency ([1]; relative to the parent compound of the sentence) | fold less potent than ESC1002033 [1] | IC50 ([1]; 17β-HSD10 dose response / inhibition assay, read-out: 17β-HSD10 pIC50 (converted)) [nM] | figure in brackets after the pIC50 bound ([1]; Table 3, equals Max. Effect (%) of Table 6) | Structure (SMILES) | LDH % Toxicity (50 μM Dose) [2] [%] | Alamar Blue % Viability (50 μM Dose) [3] [%] | 17β-HSD10 / ABAD activity in words (SAR discussion) [1] | LDH % Toxicity (50 μM Dose) ([2]; listed as ESC1002203-01) [%] | Alamar Blue % Viability (50 μM Dose) ([3]; listed as ESC1002203-01) [%] |
| --- | --- | --- | --- | --- | --- | --- | --- | --- | --- | --- | --- | --- | --- | --- |
| 5.22 | 76 | 0.9 | 103 | −4 |  |  |  |  | CC(C)OCCN(C(=O)c1ccccc1F)c1cccc(N(C)Cc2c[nH]cn2)c1 [ESC1002267] | 4.81 | 89.57 |  |  |  |
| 6.02 | 96 | 1.1 | 99 | 0 |  |  |  |  | CN(Cc1c[nH]cn1)c1cccc(N(CC2CCC2)C(=O)c2ccccc2F)c1 [ESC1002265] | 4.52 | 80.52 |  |  |  |
| < 4.70 | 22 |  |  |  |  |  |  |  | CC(C)CN(C(=O)c1ccccc1F)c1cccc(N(C)Cc2cn3ccccc3n2)c1 [ESC1002214] | 5.902 | 82.439 |  |  |  |
| 5.04 | 67 | 1 | 96 | 0 |  |  |  |  | CC(C)CN(C(=O)c1ccccc1F)c1cccc(N(C)Cc2cn(C)cn2)c1 [ESC1002200] | 5.136 | 79.220 |  |  |  |
| 6.15 | 99 | 1.6 | 95 | −1 |  |  |  |  | CN(Cc1c[nH]cn1)c1cccc(N(CC2CC2)C(=O)c2ccccc2F)c1 [ESC1002342, N-(cyclopropylmethyl)-2-fluoro-N-[3-[1H-imidazol-4-ylmethyl(methyl)amino]phenyl]benzamide] | 4.76 | 85.04 |  |  |  |
| 6.28 | 97 | 1.1 | 98 | 0 |  | approximately 3 fold |  |  | Cc1ncc(CN(C)c2cccc(N(CC(C)C)C(=O)c3ccccc3F)c2)[nH]1 [ESC1002203] |  |  | only slightly reduced ABAD inhibition levels | 6.638 | 87.491 |
| 5.05 | 72 | 1.1 | 100 | 0 |  |  |  |  | CC(C)CN(C(=O)CCc1ccccc1)c1cccc(N(C)Cc2cnc[nH]2)c1 [ESC1002168, N-[3-[1H-imidazol-5-ylmethyl(methyl)amino]phenyl]-N-isobutyl-3-phenyl-propanamide] | 4.285 | 82.648 |  |  |  |
| 5.55 | 87 | 1.1 | 96 | 0 |  |  |  |  | CC(C)CN(C(=O)c1cccc2ccccc12)c1cccc(N(C)Cc2cnc[nH]2)c1 [ESC1002172, N-[3-[1H-imidazol-5-ylmethyl(methyl)amino]phenyl]-N-isobutyl-naphthalene-1-carboxamide] | 5.472 | 85.337 |  |  |  |
| 5.38 | 64 | 1.3 | 57 | 0 |  |  |  |  | COc1ccc(-c2ccccc2[C@H]2CCCN2C(=O)c2ccccc2F)cn1 (stereo in doubt) [ESC1002119, (2-fluorophenyl)-[2-[2-(6-methoxy-3-pyridyl)phenyl]pyrrolidin-1-yl]methanone] | 4.780 | 79.180 |  |  |  |
| < 4.70 | 48 |  |  |  |  |  |  |  | CC(C)CN(C(=O)c1ccccc1F)c1cccc(N(C)CC(N)=O)c1 [ESC1002570] |  |  |  |  |  |
| < 4.70 | 3 |  |  |  |  |  |  |  | Cc1ccc(C(=O)Nc2cccc(N(C)Cc3cnc[nH]3)c2)cc1 [ESC1002054, N-[3-[1H-imidazol-5-ylmethyl(methyl)amino]phenyl]-4-methyl-benzamide] |  |  |  |  |  |
| 4.97 | 70 | 1.1 | 100 | −1 |  |  |  |  | O=C(c1sccc1Cl)N1CCC[C@H]1c1ccccc1-c1cc(O)ccc1F (single isomer, unassigned) [ESC1002843] |  |  |  |  |  |
| < 4.70 | 2 |  |  |  |  |  |  |  | CN(Cc1cnc[nH]1)c1ccc2c(c1)N(C(=O)c1ccccc1F)CCC2 [ESC1002083, (2-fluorophenyl)-[7-[1H-imidazol-5-ylmethyl(methyl)amino]-3,4-dihydro-2H-quinolin-1-yl]methanone] |  |  |  |  |  |
